Reference: US20180312463A1 (The Procter & Gamble Company, priority 2015, published 2018)
pEC50: −log10 of the molar value. Counter-ions that a name gives are not always drawn.

Columns and labels:
human TRPM8 [1] = target: human TRPM8 (UniProt Q8R4D5); experiment: TRPM8 Protocol-FLIPR Assay (EC50 analysis of sensate analogs using TRPM8 activation); type: cell-based; settings: HEK-293 cells stably transfected with human TRPM8, intracellular Ca2+ by Fluo-4 AM fluorescence
Protocol: (§1) The term “TRPM8 agonist”, as used herein, refers to any compound, which when added to a TRPM8 receptor, according to the FLIPR method, as discussed herein, produces any increase in fluorescence over background.
(§2) TRPM8 Protocol-FLIPR Assay
(§3) To determine whether TRPM8 is activated, the intracellular calcium ion (Ca^2+) level was measured from transfected cells with the TRPM8 receptor sequence (SEQ ID NO:). […] Trypsin was inactivated by addition of 8 ml growth medium. Cells were transferred to a 50 ml tube and centrifuged at 850 rpm for 3 minutes to remove medium. After centrifugation, a pellet of cells was formed in the bottom of the tube separating them from the supernatant solution. […] Fluo-4 AM is a fluorescent dye used for quantifying cellular Ca^2+ concentrations in the 100 nM to 1 microM range. At the end of 30 minutes, 45 ml of assay buffer (1× HBSS (Hank's Balanced Salt Solution), 20 mM HEPES (4-(2-Hydroxyethyl)-1-piperazineethanesulfonic acid)) was added to wash cells and the resulting mixture was then centrifuged at 850 rpm for 3 minutes to remove excess buffer and Fluo-4 AM calcium indicator.
(§4) The pelleted cells were re-suspended in 10 ml assay buffer and 90 μl aliquots (50,000 cells) per well delivered to a 96-well assay plate containing 10 μl of test compounds (1 mM in assay buffer, final concentration 100 μM) or buffer control and incubated at room temperature for 30 minutes. After 30 minutes, a plate was placed into a fluorometric imaging plate reader (FLIPR384 from Molecular Devices, Sunnyvale, Calif.) and basal fluorescence recorded (excitation wave length 488 nm and emission wave length 510 nm). Then 20 μl of 100 mM of TRPM8 agonist WS5 coolant in the assay buffer was added and fluorescence recorded. For determining the direct effect of test compounds on TRPM8, fluorescence was measured immediately after addition of each compound (TABLE 7).

human TRPM8 [2] = experiment: as above; type: cell-based
Protocol: as §1, §2, §3, §4

[3] = in vivo; cited from earlier work
[4] = Sensory evaluation of coolant activity: panelists brushed with dentifrice and rated cooling intensity; type: in vivo, human; settings: dentifrice, up to 12 hours after brushing
Protocol: Dentifrices were prepared using conventional methods, such as the protocols described in U.S. Pat. No. 8,747,814, which contained no coolant (SAMPLE A) or having a coolant from TABLE 7 (SAMPLES B and C), in a flavor (peppermint) at 10 parts per million (ppm).
Sensory evaluation studies of coolant activity were conducted using a methodology patterned after the techniques described in M.C. Meilgaard, et al., Sensory Evaluation Techniques, 4th Ed. (2007). Five panelists brushed with a dentifrice from TABLE 8, having no coolant (SAMPLE A) or having a coolant from TABLE 7 (SAMPLES B and C), for two minutes, in a flavor (peppermint) at 10 parts per million (ppm). After brush expectoration, panelists then rinsed their mouth with 15 ml of an aqueous rinse and expectorated.

[5] = HEK-293 cells stably transfected with human TRPM8, intracellular Ca2+ by Fluo-4 AM fluorescence
[6] = HEK-293 cells stably transfected with human TRPM8, unit inferred

SMILES	TRPM8 (EC50 values) (human TRPM8 [1])	pEC50 (human TRPM8 [2]; [5])	other results
CC(C)[C@@H]1CC[C@@H](C)C[C@H]1C(=O)NC[C@H](NC(=O)OC(C)(C)C)c1ccccc1 [Molecule 52]	Too high to measure	–	–
CC(C)[C@@H]1CC[C@@H](C)C[C@H]1C(=O)NC[C@H](Cc1ccccc1)NC(=O)CN [Example 16]	–	7.24	–
CC(C)[C@@H]1CC[C@@H](C)C[C@H]1C(=O)NC[C@@H](NC(=O)[C@H](C)N)c1ccccc1 [Molecule 2]	–	8.57	–
CC(C)[C@@H]1CC[C@@H](C)C[C@H]1C(=O)NC[C@@H](NC(=O)[C@H](C)NC(=O)OC(C)(C)C)c1ccccc1 [Example 43, dihydrochloride]	–	–	pEC50 (human TRPM8 [2]; [6]): 5.52
CC(C)[C@@H]1CC[C@@H](C)C[C@H]1C(=O)NC[C@@H](NC(=O)[C@@H](N)Cc1ccccc1)c1ccccc1 [Molecule 55]	Too high to measure	–	–
CC(C)[C@@H]1CC[C@@H](C)C[C@@H]1O [Molecule 1-neomenthol, 1-neomenthol]	–	–	cooling threshold (concentration where the cooling effect could be clearly recognized) [3]: about 3,000 ppb
CC(C)[C@@H]1CC[C@@H](C)C[C@H]1C(=O)NC[C@H](NC(=O)[C@@H](C)N)c1ccccc1 [Molecule 33, (1R,2S ,5R)-N-((R)-2-((R)-2-Aminopropanamido)-2-phenylethyl)-2-isopropyl-5-methylcyclohexane-1-carboxamide]	–	–	cooling response over time after brushing (summary of TABLE 9) [4]: trailed off after 30 minutes
CC(C)[C@@H]1CC[C@@H](C)C[C@H]1C(=O)NCCNC(=O)[C@@H]1C[C@H](C)CC[C@H]1C(C)C [Molecule 53]	Too high to measure	–	–
CC(C)[C@@H]1CC[C@@H](C)C[C@H]1O [L-menthol]	–	–	cooling threshold (concentration where the cooling effect could be clearly recognized) [3]: about 800 ppb
CCCCCCCCCCCCCCCC(=O)N[C@H](CNC(=O)[C@@H]1C[C@H](C)CC[C@H]1C(C)C)c1ccccc1 [Molecule 54]	Too high to measure	–	–
CC(C)[C@@H]1CC[C@@H](C)C[C@H]1C(=O)NCCN(CCN)CCN.Cl.Cl [Molecule 56]	Too high to measure	–	–
CC(C)[C@@H]1CC[C@@H](C)C[C@@H]1O [d-neomenthol]	–	–	cooling threshold (concentration where the cooling effect could be clearly recognized) [3]: about 25,000 ppb
CC(C)[C@@H]1CC[C@@H](C)C[C@H]1C(=O)NC[C@@H](NC(=O)OC(C)(C)C)c1ccccc1 [Molecule 58]	Too high to measure	–	–
CC(C)[C@@H]1CC[C@@H](C)C[C@H]1C(=O)NC[C@@H](NC(=O)CN)c1ccccc1 [Molecule 1]	–	–	pEC50 (human TRPM8 [2]; [6]): > 8.70
CC(C)[C@@H]1CC[C@@H](C)C[C@H]1C(=O)NC[C@@H](NC(=O)[C@@H](C)NC(=O)OC(C)(C)C)c1ccccc1 [Molecule 59]	Too high to measure	–	–
CC(C)[C@@H]1CC[C@@H](C)C[C@H]1C(=O)NC[C@@H](NC(=O)[C@H](C)N)C1CCCCC1	–	7.55	–
CC(C)[C@@H]1CC[C@@H](C)C[C@H]1C(=O)NC[C@H](NC(=O)[C@@H](C)NC(=O)OC(C)(C)C)c1ccccc1 [Molecule 57]	Too high to measure	–	–
CC(C)[C@@H]1CC[C@@H](C)C[C@H]1C(=O)NC[C@@H](NC(=O)[C@@H](C)N)c1ccccc1 [Molecule 17, (1R,2S,5R)-N-((S)-2-((R)-2-Aminopropanamido)-2-phenylethyl)-2-isopropyl-5-methylcyclohexane-1-carboxamide]	–	–	cooling response over time after brushing (summary of TABLE 9) [4]: high cooling over the course of 12 hours
CC(C)[C@@H]1CC[C@@H](C)C[C@H]1C(=O)NC[C@@H](NC(=O)CN)c1ccccc1Cl	–	7.70	–
CC(C)[C@@H]1CC[C@@H](C)C[C@H]1C(=O)NC[C@@H](N)c1ccccc1Cl [Example 34, hydrochloride]	–	–	pEC50 (human TRPM8 [1]): 6.11
CC(C)[C@@H]1CC[C@@H](C)C[C@H]1C(=O)NC[C@@H](NC(=O)[C@H](C)N)c1ccccc1 [Example 7]	–	8.05	–
CC(C)[C@@H]1CC[C@@H](C)C[C@H]1C(=O)NCCNC(=O)CNC(=O)OC(C)(C)C [Example 49, tert-butyl (2-((2-((1R,2S,5R)-2-isopropyl-5-methylcyclohexane-1-carboxamido)ethyl)amino)-2-oxoethyl)carbamate]	–	4.40	–
CC(C)[C@@H]1CC[C@@H](C)C[C@H]1C(=O)NC[C@H](O)c1ccccc1 [Example 29]	–	6.43	–
